Earlier results as cited in US7439254B2, “Compounds, compositions, and methods” (Cytokinetics, Inc., priority 2003, dated 2008).

Test system: A549 cells
Conditions: data provided by National Cancer Institute, Developmental Therapeutic Program

SMILES	GI50 [nM]
O=c1[nH]cc(F)c(=O)[nH]1 [5-fluorouracil]	1000
COc1cccc2c1C(=O)c1c(O)c3c(c(O)c1C2=O)C[C@@](O)(C(=O)CO)C[C@@H]3O[C@H]1C[C@H](N)[C@H](O)[C@H](C)O1 [doxorubicin]	63
NC(=O)NO [hydroxyurea]	500000
CC(=O)O[C@H]1C(=O)[C@@]2(C)[C@H]([C@H](OC(=O)c3ccccc3)[C@]3(O)C[C@H](OC(=O)[C@H](O)[C@@H](NC(=O)c4ccccc4)c4ccccc4)C(C)=C1C3(C)C)[C@]1(OC(C)=O)CO[C@@H]1C[C@@H]2O [paclitaxel]	4
